In PubChem BioAssay AID328 (DTP/NCI, 2004):
Toxic doses and inconclusive results are not listed. How the source made its calls: active means survival T/C of 150% or more; inactive means T/C below 125% in these data.

System: BDF1 mice, P388 leukemia ip, median survival T/C
Assay: NCI In Vivo Anticancer Drug Screen. Data for tumor model P388 Leukemia (intraperitoneal) in B6D2F1 (BDF1) mice
Conditions: endpoint: median survival time, higher = longer survival
Procedure, shortened: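 Mice carrying the transplantable tumour receive compound or vehicle. Survival is followed in each arm, and the treated measure is divided by the vehicle measure.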

Measured: T/C

CC1CC[N-]CC1.CC1CC[N-]CC1.CC1CC[N-]CC1.CC1CC[N-]CC1.O=C([O-])C(=O)[O-].O=C([O-])C(=O)[O-].[Nb+5].[O-][O-].[O-][O-].[Pt+4]
inactive: dose: 0.39 mg/kg/injection, schedule: Q01DX009 (ip), vehicle: saline 106 % of control | dose: 0.78 mg/kg/injection, schedule: Q01DX009 (ip), vehicle: saline 102 % of control | dose: 1.56 mg/kg/injection, schedule: Q01DX009 (ip), vehicle: saline 115 % of control | dose: 3.12 mg/kg/injection, schedule: Q01DX009 (ip), vehicle: saline 102 % of control

COc1cc([N+](=O)[O-])cc(OC)c1OC
inactive: dose: 50.0 mg/kg/injection, schedule: Q01DX009 (ip), vehicle: saline with Tween-80 100 % of control | dose: 100.0 mg/kg/injection, schedule: Q01DX009 (ip), vehicle: saline with Tween-80 94 % of control | dose: 200.0 mg/kg/injection, schedule: Q01DX009 (ip), vehicle: saline with Tween-80 102 % of control | dose: 400.0 mg/kg/injection, schedule: Q01DX009 (ip), vehicle: saline with Tween-80 91 % of control

CC(=O)Nc1ccc2[nH]c(C)cc(=O)c2c1
inactive: dose: 25.0 mg/kg/injection, schedule: Q01DX009 (ip), vehicle: water 94 % of control | dose: 50.0 mg/kg/injection, schedule: Q01DX009 (ip), vehicle: water 94 % of control | dose: 50.0 mg/kg/injection, schedule: Q04DX003 (ip), vehicle: water 101 % of control | dose: 100.0 mg/kg/injection, schedule: Q01DX009 (ip), vehicle: water 92 % of control | dose: 100.0 mg/kg/injection, schedule: Q04DX003 (ip), vehicle: water 106 % of control | dose: 200.0 mg/kg/injection, schedule: Q01DX009 (ip), vehicle: water 91 % of control | dose: 200.0 mg/kg/injection, schedule: Q04DX003 (ip), vehicle: water 95 % of control | dose: 400.0 mg/kg/injection, schedule: Q01DX009 (ip), vehicle: water 92 % of control | dose: 400.0 mg/kg/injection, schedule: Q04DX003 (ip), vehicle: water 113 % of control

CC(C)(C)N1CCOCC1
inactive: dose: 12.5 mg/kg/injection, schedule: Q04DX003 (ip), vehicle: saline 109 % of control | dose: 25.0 mg/kg/injection, schedule: Q01DX009 (ip), vehicle: saline 95 % of control | dose: 25.0 mg/kg/injection, schedule: Q04DX003 (ip), vehicle: saline 95 % of control | dose: 50.0 mg/kg/injection, schedule: Q01DX009 (ip), vehicle: saline 86 % of control | dose: 50.0 mg/kg/injection, schedule: Q04DX003 (ip), vehicle: saline 90 % of control | dose: 75.0 mg/kg/injection, schedule: Q04DX003 (ip), vehicle: saline 105 % of control | dose: 115.0 mg/kg/injection, schedule: Q04DX003 (ip), vehicle: saline 120 % of control

CCOC(=O)CN1CCC2CC1c1c([nH]c3ccccc13)C21OCCO1 (stereo not given)
inactive: dose: 0.06 mg/kg/injection, schedule: Q01DX009 (ip), vehicle: saline 105 % of control | dose: 0.12 mg/kg/injection, schedule: Q01DX009 (ip), vehicle: saline 95 % of control | dose: 0.25 mg/kg/injection, schedule: Q01DX009 (ip), vehicle: saline 100 % of control | dose: 0.5 mg/kg/injection, schedule: Q01DX009 (ip), vehicle: saline 105 % of control | dose: 1.0 mg/kg/injection, schedule: Q01DX009 (ip), vehicle: saline 105 % of control | dose: 2.0 mg/kg/injection, schedule: Q01DX009 (ip), vehicle: saline 100 % of control | dose: 8.0 mg/kg/injection, schedule: Q01DX009 (ip), vehicle: saline 98 % of control | dose: 16.0 mg/kg/injection, schedule: Q01DX009 (ip), vehicle: saline 102 % of control | dose: 32.0 mg/kg/injection, schedule: Q01DX009 (ip), vehicle: saline 104 % of control

CCCCCCc1ccccc1
inactive: dose: 100.0 mg/kg/injection, schedule: Q04DX003 (ip), vehicle: saline with Tween-80 109 % of control | dose: 200.0 mg/kg/injection, schedule: Q04DX003 (ip), vehicle: saline with Tween-80 109 % of control | dose: 400.0 mg/kg/injection, schedule: Q04DX003 (ip), vehicle: saline with Tween-80 118 % of control

COc1ccc(CC#N)c(OCc2ccccc2)c1
inactive: dose: 12.5 mg/kg/injection, schedule: Q01DX009 (ip), vehicle: other 104 % of control | dose: 25.0 mg/kg/injection, schedule: Q01DX009 (ip), vehicle: other 102 % of control | dose: 50.0 mg/kg/injection, schedule: Q01DX009 (ip), vehicle: other 98 % of control | dose: 100.0 mg/kg/injection, schedule: Q01DX009 (ip), vehicle: other 89 % of control | dose: 200.0 mg/kg/injection, schedule: Q01DX009 (ip), vehicle: other 95 % of control

COc1cc(C(=O)OC2CC34CCNC35CC(OC5(OC)C2O)c2cc3c(cc24)OCO3)ccc1O (stereo not given)
inactive: dose: 0.5 mg/kg/injection, schedule: Q01DX010 (ip), vehicle: saline 100 % of control | dose: 1.0 mg/kg/injection, schedule: Q01DX010 (ip), vehicle: carboxymethylcellulose (CMC) 86 % of control | dose: 1.0 mg/kg/injection, schedule: Q01DX010 (ip), vehicle: saline 118 % of control | dose: 2.0 mg/kg/injection, schedule: Q01DX010 (ip), vehicle: saline 95 % of control
